Measured values published in patent US20240409574A1, “SMALL MOLECULES FOR DOT1L DEGRADATION AND USES THEREOF” (DANA-FARBER CANCER INSTITUTE, INC., priority 2021, published 2024).

Legend:
EOL1 cells = assay: Cell proliferation assay in EOL1 cells (trypan blue cell counts); format: cell-based, human; settings: FIG. 3, 4B, 6B, 7, 8, 9B
Protocol: Example 15: Cell Proliferation Assays in EOL1 (Human Eosinophilic Leukaemia) Cells with Inventive Bifunctional Compounds
(§1) EOL1 cells were seeded into a 6-well plate at a density of 0.25×10^6 cells/well and then treated compounds with indicated concentration and incubated for the indicated times. After staining with trypan blue, cell counts were performed using a Countess® II FL Automated Cell Counter (ThermoFisher Scientific).

DOT1L:CRBN = DOT1L:CRBN (Homo sapiens, UniProt Q8TEK3+Q96SW2); assay: DOT1L:CRBN-DDB1 dimerization assay (AlphaScreen); format: binding; settings: FIG. 2, GST-CRBN-DDB1 and 6xHIS DOT1L 125 nM
Protocol: Example 14: DOT1L:Cereblon (CRBN)-DNA Damage-Binding Protein 1 (DDB1)/DOT1L Dimerization Assay
GST-CRBN-DDB1 and DOT1L (6×HIS-tagged) were both diluted to 125 nM in assay buffer (50 mM 2-[4-(2-Hydroxyethyl)piperazin-1-yl]ethane-1-sulfonic acid (HEPES) pH 7.4, 150 mM NaCl, and 0.01% Tween®, 2, 0.1% bovine serum albumin (BSA)), and 20 μL of protein mixture was added to each well of a 384-well AlphaPlate™ (PerkinElmer®). Compounds were then added at 100 nL per well from DMSO stock plates using a Janus®, Workstation (PerkinElmer®). Following a 1-hour incubation at room temperature, 20 μL Nickel Chelate AlphaLISA® Acceptor and Glutathione AlphaLISA® Donor beads (PerkinElmer®) diluted to 20 ng/μl in assay buffer was added to each well. After a 1-hour incubation at room temperature, luminescence was measured on the Envision® 2104 plate reader (PerkinElmer®). Data were analyzed and plotted using GraphPad PRISM v6 and dimerization amplitude, mean, and s.d. values were determined using the ‘Gaussian’ analysis module.
DOT1L:CRBN dimerization by inventive bifunctional compounds 2, 3, and 6, and pomalidomide and EPZ5676 was assessed by AlphaScreen® assay.

DOT1L [1] = biological target: T1, DOT1L (Homo sapiens, UniProt Q8TEK3); assay: Western blot of DOT1L degradation in MV411 cells; format: cell-based; design: endogenous in cells; settings: FIG. 5A, 10A
Target sequence in this assay (Q8TEK3 whole entry): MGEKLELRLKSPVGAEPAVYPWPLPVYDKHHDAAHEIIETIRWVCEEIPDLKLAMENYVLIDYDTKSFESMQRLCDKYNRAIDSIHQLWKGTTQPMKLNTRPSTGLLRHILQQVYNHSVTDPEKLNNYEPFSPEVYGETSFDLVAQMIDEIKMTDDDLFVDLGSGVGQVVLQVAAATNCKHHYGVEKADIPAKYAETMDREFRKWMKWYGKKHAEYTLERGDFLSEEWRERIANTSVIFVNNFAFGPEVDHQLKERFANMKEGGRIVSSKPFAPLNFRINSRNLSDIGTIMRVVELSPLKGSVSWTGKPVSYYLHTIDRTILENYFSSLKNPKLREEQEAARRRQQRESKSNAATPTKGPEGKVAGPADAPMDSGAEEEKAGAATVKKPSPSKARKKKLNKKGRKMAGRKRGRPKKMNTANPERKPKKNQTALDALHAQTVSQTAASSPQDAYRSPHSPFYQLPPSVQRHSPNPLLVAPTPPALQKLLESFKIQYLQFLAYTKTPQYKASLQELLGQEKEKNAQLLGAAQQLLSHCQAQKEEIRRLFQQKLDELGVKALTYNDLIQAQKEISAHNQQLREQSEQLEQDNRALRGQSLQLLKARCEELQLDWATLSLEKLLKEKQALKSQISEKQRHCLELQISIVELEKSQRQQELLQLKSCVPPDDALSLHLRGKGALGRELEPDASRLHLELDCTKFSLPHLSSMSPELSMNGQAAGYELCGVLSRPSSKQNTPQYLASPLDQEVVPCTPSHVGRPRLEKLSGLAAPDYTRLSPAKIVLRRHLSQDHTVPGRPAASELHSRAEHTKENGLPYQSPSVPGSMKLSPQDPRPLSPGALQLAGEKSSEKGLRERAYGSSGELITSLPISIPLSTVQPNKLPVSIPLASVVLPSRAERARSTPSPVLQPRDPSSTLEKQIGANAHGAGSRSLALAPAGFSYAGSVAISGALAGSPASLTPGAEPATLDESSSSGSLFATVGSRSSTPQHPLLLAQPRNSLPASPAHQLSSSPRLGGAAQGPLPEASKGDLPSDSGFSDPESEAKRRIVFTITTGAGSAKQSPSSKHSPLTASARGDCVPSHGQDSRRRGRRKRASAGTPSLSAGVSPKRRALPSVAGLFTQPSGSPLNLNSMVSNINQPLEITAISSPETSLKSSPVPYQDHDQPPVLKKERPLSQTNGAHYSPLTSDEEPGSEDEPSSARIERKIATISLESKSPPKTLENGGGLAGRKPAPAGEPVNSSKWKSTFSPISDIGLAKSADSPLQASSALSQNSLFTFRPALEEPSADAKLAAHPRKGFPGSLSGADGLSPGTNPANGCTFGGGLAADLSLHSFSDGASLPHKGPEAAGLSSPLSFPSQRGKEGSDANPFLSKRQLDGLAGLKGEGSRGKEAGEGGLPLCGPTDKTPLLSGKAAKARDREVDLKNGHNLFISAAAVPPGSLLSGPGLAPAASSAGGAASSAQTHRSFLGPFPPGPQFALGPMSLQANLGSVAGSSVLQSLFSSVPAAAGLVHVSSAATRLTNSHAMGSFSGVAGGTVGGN

DOT1L [2] = biological target: T1, DOT1L; assay: DOT1L fluorescence polarization (FP) displacement assay; format: binding; settings: FIG. 1
Protocol: Example 13: Cellular Disruptor of Telomeric Silencing 1-Like (DOT1L) Fluorescence Polarization (FP) Displacement Assay
DOT1L FP displacement assays were conducted with inventive bifunctional compounds 2, 3, and 6, and pomalidomide and positive control EPZ5676 at different concentrations [M], measured in [M] per mP.
Target sequence in this assay (Q8TEK3 whole entry, species assumed): as the sequence (Q8TEK3 whole entry) above

DOT1L [3] = biological target: T1, DOT1L; assay: Western blot of DOT1L degradation in EOL1 cells; format: cell-based; design: degraded DOT1L in EOL1 cells; endogenous in cells; host or cells: EOL1; settings: FIG. 4A, 6A, 9A
Target sequence in this assay (Q8TEK3 whole entry): as above

MV411 cells = assay: Cell proliferation assay in MV411 cells (trypan blue cell counts); format: cell-based, human; settings: FIG. 5B, 10B
Protocol: Example 16: Cell Proliferation Assays in MV411 (Human Myelomonocytic Leukemia) Cells with Inventive Bifunctional Compounds
as §1, with “MV411” for “EOL1”

THP1 cells = assay: Cell proliferation assay in THP1 cells (trypan blue cell counts); format: cell-based; settings: FIG. 12
Protocol: Example 18: Cell Proliferation Assays in THP1 (Acute Monocytic Leukemia) Cells with Inventive Bifunctional Compounds
as §1, with “THP1” for “EOL1”

SEMK2 cells = assay: Cell proliferation assay in SEMK2 cells (trypan blue cell counts); format: cell-based; settings: FIG. 11
Protocol: Example 17: Cell Proliferation Assays in SEMK2 (B Acute Lymphoblastic Leukemia) Cells with Inventive Bifunctional Compounds
as §1, with “SEMK2” for “EOL1”

Chain of DOT1L:CRBN (Q8TEK3 whole entry, species assumed): as the sequence (Q8TEK3 whole entry) above
Chain of DOT1L:CRBN (Q96SW2 whole entry, species assumed): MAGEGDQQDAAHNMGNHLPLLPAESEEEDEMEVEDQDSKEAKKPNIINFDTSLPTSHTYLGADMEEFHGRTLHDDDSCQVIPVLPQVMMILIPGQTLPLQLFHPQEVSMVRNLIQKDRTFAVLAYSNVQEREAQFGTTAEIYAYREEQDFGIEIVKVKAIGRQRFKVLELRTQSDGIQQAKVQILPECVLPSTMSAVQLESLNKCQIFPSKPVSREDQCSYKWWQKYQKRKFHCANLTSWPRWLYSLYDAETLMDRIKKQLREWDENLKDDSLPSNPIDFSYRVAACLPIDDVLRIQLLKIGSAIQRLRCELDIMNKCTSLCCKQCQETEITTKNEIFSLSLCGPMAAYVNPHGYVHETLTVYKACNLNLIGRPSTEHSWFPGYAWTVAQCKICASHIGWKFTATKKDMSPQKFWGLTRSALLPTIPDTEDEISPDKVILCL
Chain of DOT1L:CRBN (Q16531 whole entry partner, species assumed): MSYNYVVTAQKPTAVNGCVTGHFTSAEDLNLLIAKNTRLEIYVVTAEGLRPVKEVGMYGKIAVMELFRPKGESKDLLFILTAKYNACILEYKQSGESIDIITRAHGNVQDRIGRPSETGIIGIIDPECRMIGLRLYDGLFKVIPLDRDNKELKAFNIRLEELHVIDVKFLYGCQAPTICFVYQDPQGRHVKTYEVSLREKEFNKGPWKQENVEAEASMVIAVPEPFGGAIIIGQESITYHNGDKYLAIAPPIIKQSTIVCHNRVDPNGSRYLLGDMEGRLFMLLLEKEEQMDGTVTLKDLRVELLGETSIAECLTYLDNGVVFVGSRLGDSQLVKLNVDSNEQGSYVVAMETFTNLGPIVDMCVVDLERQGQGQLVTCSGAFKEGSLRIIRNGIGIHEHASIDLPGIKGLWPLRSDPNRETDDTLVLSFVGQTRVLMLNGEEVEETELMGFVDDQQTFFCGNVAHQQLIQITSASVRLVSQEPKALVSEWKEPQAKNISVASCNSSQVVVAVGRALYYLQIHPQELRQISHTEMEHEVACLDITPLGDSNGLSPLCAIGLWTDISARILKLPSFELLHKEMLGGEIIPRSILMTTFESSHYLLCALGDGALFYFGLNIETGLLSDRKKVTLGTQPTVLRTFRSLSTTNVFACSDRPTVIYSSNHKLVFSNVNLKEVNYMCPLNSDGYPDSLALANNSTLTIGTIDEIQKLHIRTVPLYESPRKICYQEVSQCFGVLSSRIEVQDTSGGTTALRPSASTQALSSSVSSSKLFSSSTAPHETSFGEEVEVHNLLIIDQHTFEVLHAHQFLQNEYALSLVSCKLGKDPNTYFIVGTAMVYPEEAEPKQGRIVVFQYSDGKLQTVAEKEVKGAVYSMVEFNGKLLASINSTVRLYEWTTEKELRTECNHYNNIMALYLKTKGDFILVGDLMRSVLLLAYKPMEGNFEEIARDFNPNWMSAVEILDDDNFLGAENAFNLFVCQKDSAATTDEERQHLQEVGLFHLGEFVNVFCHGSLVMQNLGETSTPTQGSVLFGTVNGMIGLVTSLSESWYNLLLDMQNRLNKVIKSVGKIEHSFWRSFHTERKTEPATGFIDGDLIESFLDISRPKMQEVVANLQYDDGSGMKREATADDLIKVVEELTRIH

With `CC(C)N(C[C@H]1O[C@@H](n2cnc3c(NCCCCNC(=O)CCCCCCCCCCCCCCCNc4cccc5c4C(=O)N(C4CCC(=O)NC4=O)C5=O)ncnc32)[C@H](O)[C@@H]1O)C1CC(CCc2nc3cc(C(C)(C)C)ccc3[nH]2)C1` (stereo partly drawn) [Compound 2, N-(4-((9-((2R,3R,4S,5R)-5-((3-(2-(5-(tert-butyl)-1H-benzo[d]imidazol-2-yl)ethyl)cyclobutyl)(isopropyl)amino)methyl)-3,4-dihydroxytetrahydrofuran-2-yl)-9H-purin-6-yl)amino)butyl)-16-((2-(2,6-dioxopiperidin-3-yl)-1,3-dioxoisoindolin-4-ylamino)hexadecanamide] the EOL1 cell viability (EOL1 cells) was “reduced EOL1 cell viability in a dose dependent manner and at early time points”, the “formation of ternary complexes between DOT1L and CRBN” value (“formation” below) (DOT1L:CRBN) was “induced the formation of ternary complexes between the DOT1L and CRBN” and the “DOT1L degradation in MV411 cells” value (DOT1L [1]) was “degraded DOT1L in MV411 cells and in a dose dependent manner up to 10.0 μM”. The “DOT1L binding via displacement of FITC-probe in FP assay” value (“DOT1L binding via displacement” for short) (DOT1L [2]) was “bound DOT1L via displacement of fluorescein isothiocyanate (FITC)-probe in FP assay”, the “DOT1L degradation in EOL1 cells” value (DOT1L [3]) was “degraded DOT1L in EOL1 cells and in a dose dependent manner up to 2.5 μM” and the MV411 cell viability (MV411 cells) was “reduced MV411 cell viability in a dose dependent manner and at early time points”.
In the case of `CC(C)N(C[C@H]1O[C@@H](n2cnc3c(NCCCCNC(=O)CCCCCCCCCCCCCCCNc4cccc5c4C(=O)N(C4CCC(=O)NC4=O)C5=O)ncnc32)[C@H](O)[C@@H]1O)C1CC(CCc2nc3cc(C(C)(C)C)ccc3[nH]2)C1` (some centres unmarked) [Compound 3], the EOL1 cell viability (EOL1 cells) is reported as “reduced EOL1 cell viability in a dose dependent manner and at early time points”, the “formation” value (DOT1L:CRBN) is reported as “induced the formation of ternary complexes between the DOT1L and CRBN” and the “DOT1L binding via displacement” value (DOT1L [2]) is reported as “bound DOT1L via displacement of fluorescein isothiocyanate (FITC)-probe in FP assay”. The “DOT1L degradation in EOL1 cells” value (DOT1L [3]) was “degraded DOT1L in EOL1 cells and in a dose dependent manner up to 5.0 μM”.
For `Cc1ncsc1-c1ccc(CNC(=O)[C@H]2C[C@H](O)CN2C(=O)[C@H](NC(=O)CCCCCCCNC(=O)CCCC(=O)NCCCCNc2ncnc3c2ncn3[C@@H]2O[C@H](CN(C(C)C)C3CC(CCc4nc5cc(C(C)(C)C)ccc5[nH]4)C3)[C@@H](O)[C@H]2O)C(C)(C)C)cc1` (stereo partly drawn) [Compound 4, N1-(4-((9-((2R,3R,4S,5R)-5-(((3-(2-(5-(tert-butyl)-1H-benzo[d]imidazol-2-yl)ethyl)cyclobutyl)(isopropyl)amino)methyl)-3,4-dihydroxytetrahydrofuran-2-yl)-9H-purin-6-yl)amino)butyl)-N5-(8-(((R)-1-((2R,4S)-4-hydroxy-2-((4-(4-methylthiazol-5-yl)benzyl)carbamoyl)pyrrolidin-1-yl)-3,3-dimethyl-1-oxobutan-2-yl)amino)-8-oxooctyl)glutaramide], the EOL1 cell viability (EOL1 cells) was “did not reduce EOL1 cell viability in a dose dependent manner”.
With `CC(C)N(C[C@H]1O[C@@H](n2ccc3c(NCCCCNC(=O)CCCCCCCCCCCCCCCNc4cccc5c4C(=O)N(C4CCC(=O)NC4=O)C5=O)ncnc32)[C@H](O)[C@@H]1O)C1CC(CCc2nc3cc(C(C)(C)C)ccc3[nH]2)C1` (stereo partly drawn) [Compound 5, N-(4-((7-((2R,3R,4S,5R)-5-(((3-(2-(5-(tert-butyl)-1H-benzo[d]imidazol-2-yl)ethyl)cyclobutyl)(isopropyl)amino)methyl)-3,4-dihydroxytetrahydrofuran-2-yl)-7H-pyrrolo[2,3-d]pyrimidin-4-yl)amino)butyl)-16-((2-(2,6-dioxopiperidin-3-yl)-1,3-dioxoisoindolin-4-yl)amino)hexadecanamide] the EOL1 cell viability (EOL1 cells) was “did not reduce EOL1 cell viability in a dose dependent manner and at early time points”.
With `CC(C)N(CCCNC(=O)Nc1ccc(C(C)(C)C)cc1)C[C@H]1O[C@H](n2cnc3c(NCCCCNC(=O)CCCCCCCCCCCCCCCNc4cccc5c4C(=O)N(C4CCC(=O)NC4=O)C5=O)ncnc32)[C@H](O)[C@@H]1O` (stereo partly drawn) [Compound 6, N-(4-((9-((2S,3R,4S,5R)-5-(((3-(3-(4-(tert-butyl)phenyl)ureido)propyl)(isopropyl)amino)methyl)-3,4-dihydroxytetrahydrofuran-2-yl)-9H-purin-6-yl)amino)butyl)-16-((2-(2,6-dioxopiperidin-3-yl)-1,3-dioxoisoindolin-4-yl)amino)hexadecanamide] the EOL1 cell viability (EOL1 cells) was “reduced EOL1 cell viability in a dose dependent manner and at early time points”, the THP1 cell viability (THP1 cells) was “reduced THP1 cell viability in a dose dependent manner and at early time points” and the “formation” value (DOT1L:CRBN) was “induced the formation of ternary complexes between the DOT1L and CRBN”. The “DOT1L degradation in MV411 cells” value (DOT1L [1]) was “degraded DOT1L in MV411 cells and in a dose dependent manner up to 5.0 μM”, the SEMK2 cell viability (SEMK2 cells) was “reduced SEMK2 cell viability in a dose dependent manner and at early time points” and the “DOT1L binding via displacement” value (DOT1L [2]) was “bound DOT1L via displacement of fluorescein isothiocyanate (FITC)-probe in FP assay”. The “DOT1L degradation in EOL1 cells” value (DOT1L [3]) was “degraded DOT1L in EOL1 cells and in a dose dependent manner up to 5.0 μM” and the MV411 cell viability (MV411 cells) was “reduced MV411 cell viability in a dose dependent manner and at early time points”.
